Tests used:
Experiment in all cases: KinomeScan profiling
Type in all cases: binding
[1] = molecular target: T1, SRPK1 (Homo sapiens, UniProt Q96SB4); settings: SRPK1, 1 μM; read-out: % control
T1 construct: purchased KinomeScan® (panel service)
Experimental: (§1) The kinase selectivity of inventive compounds 77, 96 and 101 was evaluated by KinomeScan®. KinomeScan® analysis was performed against a near comprehensive panel of 468 kinases. The control percentage (% control) for inventive compounds at 1 μM in DMSO was determined by Equation 1: % control=(inventive compound−positive control)/(negative control−positive control)×100%, Equation 1
(§2) wherein the positive control is a compound with a % control value of 0% relative light units (RLU), and the negative control (i.e., DMSO) has % control value of 100% RLU. The enzyme selectivity in the present invention is defined as follows: inventive compounds are considered active for an enzyme when the observed % control is less than 35% (<35%).

[2] = molecular target: CAMKK1 (Homo sapiens, UniProt Q8N5S9); settings: CAMKK1, 1 μM; read-out: % control
Experimental: as §1, §2

[3] = molecular target: T2, IRAK3 (Homo sapiens, UniProt Q9Y616); settings: IRAK3, 1 μM; read-out: % control
T2 construct: purchased KinomeScan®
T2 sequence (Q9Y616 1-596): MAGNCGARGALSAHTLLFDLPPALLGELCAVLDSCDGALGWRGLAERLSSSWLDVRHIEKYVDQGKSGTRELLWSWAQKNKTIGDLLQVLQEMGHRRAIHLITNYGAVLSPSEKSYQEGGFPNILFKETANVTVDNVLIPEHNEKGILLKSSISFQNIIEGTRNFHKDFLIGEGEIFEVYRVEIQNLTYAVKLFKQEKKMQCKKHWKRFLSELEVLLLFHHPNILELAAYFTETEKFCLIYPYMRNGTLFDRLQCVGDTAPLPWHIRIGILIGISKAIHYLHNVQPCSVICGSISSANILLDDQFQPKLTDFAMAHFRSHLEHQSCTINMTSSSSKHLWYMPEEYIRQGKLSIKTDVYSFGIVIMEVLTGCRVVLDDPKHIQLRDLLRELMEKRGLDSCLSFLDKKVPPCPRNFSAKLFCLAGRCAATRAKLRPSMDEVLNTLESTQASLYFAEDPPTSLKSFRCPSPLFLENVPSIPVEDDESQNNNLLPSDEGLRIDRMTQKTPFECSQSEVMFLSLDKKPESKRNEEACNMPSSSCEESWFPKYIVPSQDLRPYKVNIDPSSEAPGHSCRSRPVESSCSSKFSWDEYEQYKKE
Experimental: as §1, §2

[4] = molecular target: T3, BLK (Homo sapiens, UniProt P51451); settings: read-out: % control
T3 construct: purchased KinomeScan®
Experimental: as §1, §2

[5] = molecular target: YANK1 (Homo sapiens, UniProt Q8WU08); settings: YANK1, 1 μM; read-out: % control
Experimental: as §1, §2

[6] = molecular target: PRKCH (Homo sapiens, UniProt P24723); settings: read-out: % control
Experimental: as §1, §2

[7] = molecular target: T4, SRMS (Homo sapiens, UniProt Q9H3Y6); settings: read-out: % control
T4 construct: purchased KinomeScan® (panel service)
Experimental: as §1, §2

[8] = molecular target: T5, HIPK4 (Homo sapiens, UniProt Q8NE63); settings: HIPK4, 1 μM; read-out: % control
T5 sequence (Q8NE63 1-616): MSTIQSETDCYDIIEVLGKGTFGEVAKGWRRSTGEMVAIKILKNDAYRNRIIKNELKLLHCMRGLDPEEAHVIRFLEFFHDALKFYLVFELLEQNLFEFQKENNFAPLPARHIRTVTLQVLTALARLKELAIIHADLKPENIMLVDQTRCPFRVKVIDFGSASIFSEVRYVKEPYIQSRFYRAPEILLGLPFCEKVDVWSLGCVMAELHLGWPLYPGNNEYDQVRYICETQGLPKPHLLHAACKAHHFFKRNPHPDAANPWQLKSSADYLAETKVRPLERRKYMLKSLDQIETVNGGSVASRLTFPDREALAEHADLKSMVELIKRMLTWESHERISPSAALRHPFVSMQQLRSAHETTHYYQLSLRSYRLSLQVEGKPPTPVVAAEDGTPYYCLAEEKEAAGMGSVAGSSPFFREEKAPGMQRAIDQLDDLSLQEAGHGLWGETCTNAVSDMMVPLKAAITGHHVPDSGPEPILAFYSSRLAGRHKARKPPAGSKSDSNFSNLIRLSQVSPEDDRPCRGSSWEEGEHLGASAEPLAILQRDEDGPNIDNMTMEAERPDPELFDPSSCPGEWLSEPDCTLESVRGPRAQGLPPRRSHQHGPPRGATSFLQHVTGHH
Experimental: as §1, §2

[9] = molecular target: T6, S6K1 (Homo sapiens, UniProt P23443); settings: S6K1, 1 μM; read-out: % control
T6 construct: purchased KinomeScan® (panel service)
Experimental: as §1, §2

[10] = molecular target: T7, MKK7 (Homo sapiens, UniProt O14733); settings: MKK7, 1 μM; read-out: % control
T7 sequence (O14733 1-419): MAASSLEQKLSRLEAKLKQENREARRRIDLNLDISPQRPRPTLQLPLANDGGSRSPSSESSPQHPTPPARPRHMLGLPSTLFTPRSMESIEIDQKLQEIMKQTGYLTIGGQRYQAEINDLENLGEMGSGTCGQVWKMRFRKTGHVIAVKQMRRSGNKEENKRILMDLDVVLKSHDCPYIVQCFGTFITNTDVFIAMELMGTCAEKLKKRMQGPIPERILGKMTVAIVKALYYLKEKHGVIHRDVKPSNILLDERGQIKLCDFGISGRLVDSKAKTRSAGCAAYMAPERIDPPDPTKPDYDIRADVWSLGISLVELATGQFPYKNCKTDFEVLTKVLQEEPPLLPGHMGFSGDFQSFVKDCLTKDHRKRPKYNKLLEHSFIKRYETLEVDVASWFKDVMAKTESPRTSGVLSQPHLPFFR
Experimental: as §1, §2

Chain of CAMKK1 (Q8N5S9 whole entry): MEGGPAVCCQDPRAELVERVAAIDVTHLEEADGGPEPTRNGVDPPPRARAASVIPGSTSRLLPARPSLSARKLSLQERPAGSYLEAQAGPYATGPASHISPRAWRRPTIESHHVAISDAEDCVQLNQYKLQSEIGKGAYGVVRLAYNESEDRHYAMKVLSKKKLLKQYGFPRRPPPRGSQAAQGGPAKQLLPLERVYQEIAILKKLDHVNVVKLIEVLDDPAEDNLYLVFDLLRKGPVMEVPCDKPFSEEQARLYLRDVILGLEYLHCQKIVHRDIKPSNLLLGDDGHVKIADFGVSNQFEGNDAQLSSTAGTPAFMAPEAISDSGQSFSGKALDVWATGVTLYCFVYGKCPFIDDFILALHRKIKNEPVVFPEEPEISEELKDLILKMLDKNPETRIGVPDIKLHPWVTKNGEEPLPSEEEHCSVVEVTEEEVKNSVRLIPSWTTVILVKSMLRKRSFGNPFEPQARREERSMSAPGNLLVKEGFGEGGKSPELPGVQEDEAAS
Chain of PRKCH (P24723 whole entry): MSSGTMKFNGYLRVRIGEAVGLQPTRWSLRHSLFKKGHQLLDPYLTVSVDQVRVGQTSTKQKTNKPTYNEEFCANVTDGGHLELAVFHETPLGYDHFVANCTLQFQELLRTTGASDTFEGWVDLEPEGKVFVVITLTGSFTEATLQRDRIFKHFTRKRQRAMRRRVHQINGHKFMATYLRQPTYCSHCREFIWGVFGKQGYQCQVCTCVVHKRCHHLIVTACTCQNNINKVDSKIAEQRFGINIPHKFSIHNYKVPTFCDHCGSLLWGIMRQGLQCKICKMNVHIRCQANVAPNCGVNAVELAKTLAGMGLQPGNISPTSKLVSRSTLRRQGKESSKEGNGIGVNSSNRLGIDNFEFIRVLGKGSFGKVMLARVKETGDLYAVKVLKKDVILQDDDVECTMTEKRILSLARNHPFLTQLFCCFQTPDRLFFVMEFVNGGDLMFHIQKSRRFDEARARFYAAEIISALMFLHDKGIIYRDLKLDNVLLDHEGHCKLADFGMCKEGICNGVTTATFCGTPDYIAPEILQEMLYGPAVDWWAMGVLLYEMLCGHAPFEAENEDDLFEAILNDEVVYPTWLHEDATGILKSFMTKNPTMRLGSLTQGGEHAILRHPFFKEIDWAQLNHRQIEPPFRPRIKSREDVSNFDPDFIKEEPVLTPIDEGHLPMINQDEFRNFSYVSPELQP
T6 sequence (P23443 whole entry): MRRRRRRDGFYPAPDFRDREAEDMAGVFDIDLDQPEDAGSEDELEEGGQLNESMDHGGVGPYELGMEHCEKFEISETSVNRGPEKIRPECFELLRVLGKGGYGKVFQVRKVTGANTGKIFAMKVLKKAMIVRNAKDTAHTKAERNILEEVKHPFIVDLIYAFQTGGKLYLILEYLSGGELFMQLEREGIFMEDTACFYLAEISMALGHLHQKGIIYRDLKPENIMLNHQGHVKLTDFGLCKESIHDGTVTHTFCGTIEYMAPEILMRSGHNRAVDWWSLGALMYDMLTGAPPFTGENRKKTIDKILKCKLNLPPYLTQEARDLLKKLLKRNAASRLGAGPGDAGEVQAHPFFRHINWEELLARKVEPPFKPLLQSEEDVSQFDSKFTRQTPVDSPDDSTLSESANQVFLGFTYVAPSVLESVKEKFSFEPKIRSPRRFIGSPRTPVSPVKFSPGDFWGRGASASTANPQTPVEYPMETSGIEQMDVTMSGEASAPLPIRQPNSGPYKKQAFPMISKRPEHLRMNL
Chain of YANK1 (Q8WU08 whole entry): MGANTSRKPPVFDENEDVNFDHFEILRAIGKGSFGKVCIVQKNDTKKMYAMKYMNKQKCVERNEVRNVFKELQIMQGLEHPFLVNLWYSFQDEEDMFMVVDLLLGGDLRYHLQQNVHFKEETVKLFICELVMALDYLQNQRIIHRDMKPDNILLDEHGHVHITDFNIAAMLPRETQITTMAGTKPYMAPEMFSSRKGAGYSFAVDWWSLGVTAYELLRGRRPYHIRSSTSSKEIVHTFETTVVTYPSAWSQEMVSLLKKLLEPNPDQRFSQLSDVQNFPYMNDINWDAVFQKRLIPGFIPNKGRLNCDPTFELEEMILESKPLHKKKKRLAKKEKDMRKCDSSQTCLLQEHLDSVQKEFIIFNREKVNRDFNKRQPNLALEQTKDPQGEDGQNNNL
T4 sequence (Q9H3Y6 whole entry): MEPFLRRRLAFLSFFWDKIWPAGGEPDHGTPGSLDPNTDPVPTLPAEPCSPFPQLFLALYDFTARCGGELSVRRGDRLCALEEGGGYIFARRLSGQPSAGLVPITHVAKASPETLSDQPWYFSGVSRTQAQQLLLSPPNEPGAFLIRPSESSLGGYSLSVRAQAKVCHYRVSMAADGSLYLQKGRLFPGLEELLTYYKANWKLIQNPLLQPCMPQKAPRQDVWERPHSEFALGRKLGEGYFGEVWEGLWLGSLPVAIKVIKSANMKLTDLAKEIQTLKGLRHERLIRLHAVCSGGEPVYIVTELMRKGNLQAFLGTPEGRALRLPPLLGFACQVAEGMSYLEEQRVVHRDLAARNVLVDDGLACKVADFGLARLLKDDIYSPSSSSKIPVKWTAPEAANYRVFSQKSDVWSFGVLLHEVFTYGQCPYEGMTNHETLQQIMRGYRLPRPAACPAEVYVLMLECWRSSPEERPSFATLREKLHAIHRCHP
T3 sequence (P51451 whole entry): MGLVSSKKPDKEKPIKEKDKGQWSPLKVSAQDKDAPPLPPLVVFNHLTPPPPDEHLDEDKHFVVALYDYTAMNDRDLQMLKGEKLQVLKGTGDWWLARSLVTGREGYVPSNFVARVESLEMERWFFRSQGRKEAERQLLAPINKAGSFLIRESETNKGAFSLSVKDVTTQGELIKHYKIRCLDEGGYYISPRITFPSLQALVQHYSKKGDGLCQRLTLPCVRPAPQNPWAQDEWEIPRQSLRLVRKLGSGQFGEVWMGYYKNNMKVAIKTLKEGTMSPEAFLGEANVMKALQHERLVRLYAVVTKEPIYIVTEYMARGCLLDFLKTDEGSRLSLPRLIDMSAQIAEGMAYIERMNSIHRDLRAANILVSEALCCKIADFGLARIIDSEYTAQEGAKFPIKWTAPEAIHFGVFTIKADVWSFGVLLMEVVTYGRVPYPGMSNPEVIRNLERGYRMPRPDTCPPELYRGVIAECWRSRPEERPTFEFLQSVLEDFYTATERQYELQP
T1 sequence (Q96SB4 whole entry): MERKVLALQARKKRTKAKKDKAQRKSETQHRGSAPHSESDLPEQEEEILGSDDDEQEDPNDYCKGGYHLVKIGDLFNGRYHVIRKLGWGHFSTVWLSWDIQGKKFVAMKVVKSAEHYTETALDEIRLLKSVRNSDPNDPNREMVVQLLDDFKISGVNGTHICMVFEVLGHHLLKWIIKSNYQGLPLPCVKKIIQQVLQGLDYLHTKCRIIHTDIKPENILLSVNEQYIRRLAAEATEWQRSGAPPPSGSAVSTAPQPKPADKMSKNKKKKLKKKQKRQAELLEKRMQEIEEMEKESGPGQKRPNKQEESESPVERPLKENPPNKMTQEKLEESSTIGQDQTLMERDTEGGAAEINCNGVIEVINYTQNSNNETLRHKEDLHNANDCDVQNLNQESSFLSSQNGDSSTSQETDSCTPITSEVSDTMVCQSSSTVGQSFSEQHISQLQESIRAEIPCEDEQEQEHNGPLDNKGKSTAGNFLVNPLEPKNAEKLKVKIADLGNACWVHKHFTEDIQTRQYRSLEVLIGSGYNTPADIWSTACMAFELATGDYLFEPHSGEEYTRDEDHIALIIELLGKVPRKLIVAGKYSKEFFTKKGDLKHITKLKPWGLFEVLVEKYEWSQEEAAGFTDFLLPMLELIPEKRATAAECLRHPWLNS

SMILES | remaining binding at 1 µM [1] | remaining binding at 1 µM [2] | remaining binding at 1 µM [3] | remaining binding at 1 µM [4] | remaining binding at 1 µM [5] | remaining binding at 1 µM [6] | remaining binding at 1 µM [7] | remaining binding at 1 µM [8] | remaining binding at 1 µM [9] | remaining binding at 1 µM [10]
CNc1c(-c2ccc(C(=O)N3CCC(N4CCOCC4)CC3)cc2)cnc2[nH]cc(Cl)c12 [Compound 96, (4-(3-chloro-4-(methylamino)-1H-pyrrolo[2,3-b]pyridin-5-yl)phenyl)(4-morpholinopiperidin-1-yl)methanone] | 17% | 78% | 76% | 100% | 100% | 92% | 100% | 64% | 87% | 79%
O=C(c1ccc(-c2cnc3[nH]cc(Cl)c3c2NC2CCCC2)cc1)N1CCC(N2CCOCC2)CC1 [Compound 101, (4-(3-chloro-4-(cyclopentylamino)-1H-pyrrolo[2,3-b]pyridin-5-yl)phenyl)(4-morpholinopiperidin-1-yl)methanone] | 27% | 87% | 37% | 100% | 100% | 73% | 72% | 79% | 100% | 100%
CNc1c(-c2cnn([C@H]3CCN(C(C)=O)C[C@@H]3F)c2)cnc2[nH]cc(Cl)c12 [Compound 77, 1-((3S,4S)-4-(4-(3-chloro-4-(methylamino)-1H-pyrrolo[2,3-b]pyridin-5-yl)-1H-pyrazol-1-yl)-3-fluoropiperidin-1-yl)ethan-1-one] | 10% | 74% | 40% | 100% | 100% | 83% | 90% | 84% | 50% | 67%
